Drawing on patent US8940757B2, “Prasugrel in micronized, crystalline form and pharmaceutical composition thereof” (ratiopharm GmbH, priority 2010, dated 2015), this text covers solubility and degradation for one molecule.

Series [1] can be described thus: Solubility in water. Type of series: physicochemical. The following applies: free base. As to the method:
Prasugrel is administered orally as platelet aggregation inhibitor. The problem here is that Prasugrel is a sparingly soluble active ingredient.

Series [2] is described as follows: pH-dependent degradation. It counts as physicochemical. Conditions: pH values of <3, after 2 hours. As to the method: In addition, Prasugrel also has a strongly pH-dependent degradation. With pH values of <3 a degradation of more than 1% is observed already after 2 hours. This limits the potential excipients in the preparation of pharmaceutical formulations.

≈ marks a conversion by molar mass, not a printed value.

The solubility is how much of the substance goes into solution per volume. Read a high solubility as a readily soluble substance. Molecule `CC(=O)Oc1cc2c(s1)CCN(C(C(=O)C1CC1)c1ccccc1F)C2` (stereo not drawn) [Prasugrel, 2-acetoxy-5-(α-cyclopropylcarbonyl-2-fluorobenzyl)-4,5,6,7-tetrahydrothieno[3,2-c]pyridine] returned a solubility in series [1] of 57 µg/mL (≈ 153 µM). In addition, the degradation result in series [2] is given as “more than 1%”.
